Here are results for 9 compounds from PubChem BioAssay (NCI).

Some test systems named below: NCI-H460 lung; MDA-MB-435; COLO 205 colon; SK-MEL-2 melanoma; UACC-257 melanoma; NCI/ADR-RES ovarian; CAKI-1 renal; HL-60(TB) leukemia; HOP-62 NSCLC; HOP-92 NSCLC; EKVX NSCLC; OVCAR-3 ovarian; LOX IMVI melanoma; MALME-3M melanoma; OVCAR-4 ovarian.
Common to all, as to assay: NCI tumour cell line growth inhibition, 48 h

Each structure is given as a SMILES string.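 Grown in 96-well plates, cells were treated for 48 hours with each compound at five concentrations. Insufficient inhibition: endpoint recorded as highest concentration tested. TGI: concentration producing complete growth inhibition.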

As to `CC[C@H](C)[C@H]1NC(=O)[C@@H](NC(=O)[C@@H](CC(C)C)N(C)C(=O)C2CCCN2C(=O)[C@H](C)O)[C@@H](C)OC(=O)[C@H](Cc2ccc(OC)cc2)N(C)C(=O)[C@@H]2CCCN2C(=O)[C@H](CCCCNC(=O)OCc2ccccc2)NC(=O)[C@H](C)C(=O)[C@H](C(C)C)OC(=O)C[C@@H]1O` (stereo not given in full), the TGI in the assay on NCI-H460 lung is greater than 25 µM; in the assay on MDA-MB-435, greater than 25 µM; in the assay with COLO 205 colon, 18.9 µM; in the assay on SK-MEL-2 melanoma it was 10.1 µM; in the assay on UACC-257 melanoma, greater than 25 µM; in the assay on NCI/ADR-RES ovarian, greater than 25 µM. For the same compound, the TGI with CAKI-1 renal was greater than 25 µM; with HL-60(TB) leukemia it was greater than 25 µM; in the assay with HOP-62 NSCLC it was greater than 25 µM; with HOP-92 NSCLC it was greater than 25 µM; in the assay on EKVX NSCLC, greater than 25 µM; with OVCAR-3 ovarian, 24.8 µM. The results for the TGI with LOX IMVI melanoma, with MALME-3M melanoma and in the assay on OVCAR-4 ovarian were greater than 25 µM, 20.1 µM and greater than 25 µM, respectively.
For `COc1ccccc1NC(=S)NN=C(C)c1cccc(C(C)=NNC(=S)Nc2ccccc2OC)n1`, the TGI in the assay with NCI-H460 lung was greater than 100 µM; with MDA-MB-435 it was greater than 100 µM; in the assay with COLO 205 colon it was greater than 100 µM; with SK-MEL-2 melanoma, greater than 100 µM; with UACC-257 melanoma it was 93.9 µM; in the assay on NCI/ADR-RES ovarian, 34.7 µM. The TGI is greater than 100 µM with CAKI-1 renal; 99.5 µM with HL-60(TB) leukemia; greater than 100 µM with HOP-62 NSCLC; 97.7 µM with HOP-92 NSCLC; greater than 100 µM in the assay with EKVX NSCLC; greater than 100 µM with OVCAR-3 ovarian. The TGI with LOX IMVI melanoma is greater than 100 µM; in the assay with MALME-3M melanoma, 40.6 µM; in the assay with OVCAR-4 ovarian it was 74.3 µM.
On to `COc1cc(OC)c2c(c1)OC(c1ccccc1)CC2=O` (stereo not given), for which the TGI in the assay with NCI-H460 lung, in the assay on MDA-MB-435, in the assay on COLO 205 colon, in the assay with SK-MEL-2 melanoma, with UACC-257 melanoma and in the assay with NCI/ADR-RES ovarian was greater than 10 µM each time. Also, the TGI with CAKI-1 renal, in the assay with HL-60(TB) leukemia, in the assay with HOP-62 NSCLC, in the assay with HOP-92 NSCLC, in the assay with EKVX NSCLC and in the assay on OVCAR-3 ovarian was greater than 10 µM each time. Moreover, the TGI in the assay on LOX IMVI melanoma, with MALME-3M melanoma and with OVCAR-4 ovarian was greater than 10 µM in each case.
For `O=P12N(CCN1c1ccccc1)CCN2c1ccccc1`, the TGI with NCI-H460 lung, with MDA-MB-435, in the assay with COLO 205 colon, in the assay on SK-MEL-2 melanoma, in the assay with UACC-257 melanoma and with NCI/ADR-RES ovarian was greater than 100 µM each time. The TGI in the assay with CAKI-1 renal, with HL-60(TB) leukemia, with HOP-62 NSCLC, in the assay with HOP-92 NSCLC, in the assay on EKVX NSCLC and in the assay with OVCAR-3 ovarian was greater than 100 µM each time. Further, the TGI in the assay with LOX IMVI melanoma, in the assay on MALME-3M melanoma and in the assay on OVCAR-4 ovarian was greater than 100 µM throughout.
Turning to `N#Cc1cc(C#N)c(N)nc1N`, the TGI with NCI-H460 lung, in the assay on MDA-MB-435, in the assay with COLO 205 colon, in the assay with SK-MEL-2 melanoma, in the assay with UACC-257 melanoma and in the assay with NCI/ADR-RES ovarian was greater than 100 µM throughout. Besides, the TGI in the assay on CAKI-1 renal, with HL-60(TB) leukemia, in the assay on HOP-62 NSCLC, with HOP-92 NSCLC, in the assay on EKVX NSCLC and in the assay with OVCAR-3 ovarian was greater than 100 µM each time. Besides, the TGI in the assay on LOX IMVI melanoma, in the assay with MALME-3M melanoma and in the assay on OVCAR-4 ovarian was greater than 100 µM each time.
In the case of `O=c1ccn(CC2(CO)CCC2)c(=O)[nH]1`, the TGI in the assay with NCI-H460 lung, in the assay with MDA-MB-435, in the assay with COLO 205 colon, in the assay with SK-MEL-2 melanoma, in the assay with UACC-257 melanoma and in the assay with NCI/ADR-RES ovarian was greater than 100 µM in each case. In addition, the TGI with CAKI-1 renal, in the assay on HL-60(TB) leukemia, with HOP-62 NSCLC, with HOP-92 NSCLC, in the assay on EKVX NSCLC and with OVCAR-3 ovarian was greater than 100 µM throughout. The TGI in the assay on LOX IMVI melanoma, with MALME-3M melanoma and with OVCAR-4 ovarian was greater than 100 µM each time.
For the compound `O=c1cc(N=Nc2ccc(Br)cc2)[nH]c(=S)[nH]1`, the TGI in the assay on NCI-H460 lung is greater than 100 µM; in the assay with MDA-MB-435, 38.1 µM; with COLO 205 colon it was 45.1 µM; in the assay with SK-MEL-2 melanoma, 33.3 µM; with UACC-257 melanoma it was 67.7 µM; in the assay with NCI/ADR-RES ovarian, greater than 100 µM. The TGI was 23 µM in the assay with CAKI-1 renal; 58.6 µM with HL-60(TB) leukemia; greater than 100 µM with HOP-62 NSCLC; 50.5 µM in the assay on HOP-92 NSCLC; 39.6 µM in the assay on EKVX NSCLC; 28.9 µM in the assay on OVCAR-3 ovarian. Besides, the TGI in the assay with LOX IMVI melanoma amounted to 29.4 µM; in the assay with MALME-3M melanoma, 30.8 µM; in the assay on OVCAR-4 ovarian, 34.3 µM.
In the case of `Oc1ccc(O)c(CNc2ccc(C(O)C(F)(F)F)cc2)c1` (stereo not given), the TGI is 47.3 µM in the assay with NCI-H460 lung; 47.4 µM in the assay on MDA-MB-435; 37.8 µM in the assay on COLO 205 colon; 88 µM in the assay with SK-MEL-2 melanoma; 34.6 µM with UACC-257 melanoma; greater than 100 µM in the assay on NCI/ADR-RES ovarian. Besides, the TGI in the assay on CAKI-1 renal was 29.7 µM; in the assay on HL-60(TB) leukemia it was 16.4 µM; in the assay with HOP-62 NSCLC it was 43 µM; in the assay with HOP-92 NSCLC, 27.7 µM; in the assay on EKVX NSCLC it was 27.8 µM; in the assay with OVCAR-3 ovarian, 15.4 µM. Besides, the values for the TGI in the assay on LOX IMVI melanoma, in the assay on MALME-3M melanoma and in the assay with OVCAR-4 ovarian were 32.2 µM, 31 µM and 30.3 µM, respectively.
Turning to `O=C1NC(=O)C(F)(n2cc(F)c(=O)[nH]c2=O)C(O)N1` (stereo not given), the TGI with NCI-H460 lung, with MDA-MB-435, with COLO 205 colon, in the assay on SK-MEL-2 melanoma, in the assay with UACC-257 melanoma and with NCI/ADR-RES ovarian was greater than 10 µM in each case. Further, the TGI in the assay with CAKI-1 renal, in the assay with HL-60(TB) leukemia, with HOP-62 NSCLC, in the assay with HOP-92 NSCLC, in the assay with EKVX NSCLC and in the assay with OVCAR-3 ovarian was greater than 10 µM throughout. For the same compound, the TGI in the assay with LOX IMVI melanoma, in the assay on MALME-3M melanoma and with OVCAR-4 ovarian was greater than 10 µM throughout.
